This test deals with T1, human TLR9 (Homo sapiens, UniProt Q9NR96).
T1 construct: host or cells: HEK-Blue hTLR9 (HEK293)
T1 sequence (Q9NR96 26-1032): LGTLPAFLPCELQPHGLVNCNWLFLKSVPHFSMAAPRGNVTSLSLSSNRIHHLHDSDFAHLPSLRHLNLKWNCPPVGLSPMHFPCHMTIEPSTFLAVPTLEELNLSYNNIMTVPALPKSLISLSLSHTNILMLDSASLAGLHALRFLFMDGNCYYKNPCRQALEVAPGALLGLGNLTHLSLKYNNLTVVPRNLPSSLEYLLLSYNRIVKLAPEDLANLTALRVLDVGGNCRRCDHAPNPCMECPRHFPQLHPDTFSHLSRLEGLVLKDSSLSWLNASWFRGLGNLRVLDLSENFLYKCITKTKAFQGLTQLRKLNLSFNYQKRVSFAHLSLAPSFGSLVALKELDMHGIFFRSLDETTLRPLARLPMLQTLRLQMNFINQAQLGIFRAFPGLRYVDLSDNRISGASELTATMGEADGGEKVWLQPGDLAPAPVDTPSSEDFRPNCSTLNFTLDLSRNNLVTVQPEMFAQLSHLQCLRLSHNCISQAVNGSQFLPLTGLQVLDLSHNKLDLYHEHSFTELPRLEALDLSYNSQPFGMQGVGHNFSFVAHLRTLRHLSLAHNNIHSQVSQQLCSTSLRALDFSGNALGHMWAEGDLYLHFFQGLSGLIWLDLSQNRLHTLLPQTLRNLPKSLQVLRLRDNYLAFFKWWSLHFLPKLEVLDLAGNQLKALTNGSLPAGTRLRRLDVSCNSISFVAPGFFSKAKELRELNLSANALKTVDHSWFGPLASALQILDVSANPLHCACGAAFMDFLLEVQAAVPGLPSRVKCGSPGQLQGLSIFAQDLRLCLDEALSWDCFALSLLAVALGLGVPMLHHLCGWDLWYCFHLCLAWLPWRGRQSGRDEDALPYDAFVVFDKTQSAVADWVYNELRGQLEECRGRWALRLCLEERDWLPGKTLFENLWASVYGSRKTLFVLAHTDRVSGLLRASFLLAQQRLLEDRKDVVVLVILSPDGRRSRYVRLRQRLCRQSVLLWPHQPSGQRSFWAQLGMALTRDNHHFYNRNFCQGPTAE
The test can be described thus: Inhibitory effect on human TLR9 activation pathway (HEK-Blue hTLR9 SEAP reporter). Type of test: cell-based. The note with it: HEK-Blue hTLR9 cells, 1 μM CpG ODN2006, 20 h, SEAP OD620. The procedure: • 1. HEK-Blue™ hTLR9 cell (Invivogen) • 2. CpG ODN2006 (Invivogen) • 3. Alkaline phosphatase detection medium (Quanti-Blue Detection. Invivogen) • 4. Blasticidin (Invivogen) • 5. Zeocin (Invivogen) • 6. Normocin (Invivogen) • 7. DMEM/HIGH Glucose (GE Healthcare) • 8. Fetal bovine serum (FBS, Gibco) • 9. Phosphate-buffered saline (Shanghai BasalMedia Technologies Co., Ltd.) • 10. Sterile purified water (made in-house by Shanghai Hengrui) • 11. 15 mL centrifuge tube (Corning) • 12. 96-well formulating plate (Corning) • 13. 96-well fat-bottom cell culture plate (Corning) • 14. Constant-temperature cell incubator (Thermo scientific) • 15. Constant-temperature incubator (Shanghai Yiheng Scientific Instruments Co., Ltd.) • 16. PHERAstar FS microplate reader (BMG Labtech)
HEK-Blue™ hTLR9 cells were purchased from Invivogen. These cells are HEK293 cells transfected with the human Toll-like receptor 9 (TLR9) gene and the secreted alkaline phosphatase reporter gene (SEAP). The alkaline phosphatase reporter gene (SEAP) is under the regulation of the IFN-β minimal promoter comprising 5 NF-kB and AP-1 binding sites. Upon activation of TLR9 with an agonist, SEAP secretion is induced via downstream NF-kB and AP-1. Ater addition of an antagonist compound, the pathway described above is inhibited, and SEAP secretion is reduced. The activity of the compounds for the TLR9 pathway was evaluated by measuring OD620 through the SEAP substrate.
20 mM test compounds dissolved in 100% DMSO were serially diluted with 100% DMSO to 2000, 400, 80, 16, 3.2, 0.64, 0.128, 0.0256 IM, with blank wells containing 100% DMSO. […] The cells were cultured at 37° C. for 1-2 min, dispersed by pipetting, transferred to a 15 mL centrifuge tube, and counted, and the cell density was adjusted to 4.8×10^5/mL with the DMEM/HIGH glucose medium containing 10% inactivated FBS. […] Then the OD620 absorbance readings were taken on a microplate reader. The inhibition rate was calculated using the following formula: […]

The term IC50 denotes the concentration at which inhibition is half-maximal. Low values mean inhibition by little substance, high ones a need for much substance. For the compound `Cc1cc(-c2[nH]c3cc4c(nc3c2C(C)C)CN(CCc2ccc(N3CCNCC3)nc2)CC4)cc(C)n1` [Example 4, 2-(2,6-Dimethylpyridin-4-yl)-3-isopropyl-6-(2-(6-(piperazin-4-yl)pyridin-3-yl)ethyl)-5,6,7,8-tetrahydro-1H-pyrrolo[3,2-b][1,7]naphthyridine], 0.074 µM corresponded to half-maximal inhibition (IC50).
The result for `Cc1cc(-c2[nH]c3cc4c(nc3c2C(C)C)CN(Cc2ccc(N3CCNCC3)cn2)CC4)cc(C)n1` [Example 5, 2-(2,6-Dimethylpyridin-4-yl)-3-isopropyl-6-((5-(piperazin-1-yl)pyridin-2-yl)methyl)-5,6,7,8-tetrahydro-1H-pyrrolo[3,2-b][1,7]naphthyridine] reads 0.087 µM.
The compound `Cc1cc(-c2[nH]c3cc4c(nc3c2C(C)C)CN(CC23CCC(N)(CC2)CC3)CC4)cc(C)n1` [Example 7, 4-((2-(2,6-Dimethylpyridin-4-yl)-3-isopropyl-1,5,7,8-tetrahydro-6H-pyrrolo[3,2-b][1,7]naphthyridin-6-yl)methyl)bicyclo[2.2.2]octyl-1-amine] came in with a concentration for half-maximal inhibition (IC50) of 0.09 µM.
